# Reference: the kinase profiling compilation of Christmann-Franck et al. (2016)
# How the values were obtained:
# MAPKAPK3 (human) = MAPKAPK3 (human) (UniProt Q16644); assay: Flashplate
# MLTK (human) = MLTK (human) (UniProt Q9NYL2); assay: Flashplate
# CHEK2 (human) = CHEK2 (human) (UniProt O96017); assay: Flashplate
# DAPK3 (human) = DAPK3 (human) (UniProt O43293); assay: Flashplate
# PRKAA1 (human) = PRKAA1 (human) (UniProt Q13131); assay: Flashplate
# HIPK2 (human) = HIPK2 (human) (UniProt Q9H2X6); assay: Flashplate
# PRKCD (human) = PRKCD (human) (UniProt Q05655); assay: Flashplate
# MAP4K4 (human) = MAP4K4 (human) (UniProt O95819); assay: Flashplate
# RPS6KB1 (human) = RPS6KB1 (human) (UniProt P23443); assay: Flashplate
# MAPKAPK2 (human) = MAPKAPK2 (human) (UniProt P49137); assay: Flashplate
# AKT3 (human) = AKT3 (human) (UniProt Q9Y243); assay: Flashplate
# MAPK1 (human) = MAPK1 (human) (UniProt P28482); assay: Flashplate
# PRKG1 (human) = PRKG1 (human) (UniProt Q13976); assay: Flashplate
# FYN (human) = FYN (human) (UniProt P06241); assay: HTRF
# NTRK2 (human) = NTRK2 (human) (UniProt Q16620); assay: HTRF
# SRC (human) = SRC (human) (UniProt P12931); assay: HTRF
# LYN (human) = LYN (human) (UniProt P07948); assay: HTRF
# IGF1R (human) = IGF1R (human) (UniProt P08069); assay: HTRF
# KDR (human) = KDR (human) (UniProt P35968); assay: HTRF
# RET (human) = RET (human) (UniProt P07949); assay: HTRF
# INSR (human) = INSR (human) (UniProt P06213); assay: HTRF
# TYRO3 (human) = TYRO3 (human) (UniProt Q06418); assay: HTRF
# FLT4 (human) = FLT4 (human) (UniProt P35916); assay: HTRF
# FGFR1 (human) = FGFR1 (human) (UniProt P11362); assay: HTRF
# FLT1 (human) = FLT1 (human) (UniProt P17948); assay: HTRF
# TYK2 JH1 JH2 (human) = TYK2 JH1 JH2 (human) (UniProt P29597); assay: HTRF
# NTRK1 (human) = NTRK1 (human) (UniProt P04629); assay: HTRF
# BLK (human) = BLK (human) (UniProt P51451); assay: HTRF
# MET (human) = MET (human) (UniProt P08581); assay: HTRF
# SRMS (human) = SRMS (human) (UniProt Q9H3Y6); assay: HTRF
# FRK (human) = FRK (human) (UniProt P42685); assay: HTRF
# BTK (human) = BTK (human) (UniProt Q06187); assay: HTRF
# EPHA2 (human) = EPHA2 (human) (UniProt P29317); assay: HTRF
# ABL1 (human) = ABL1 (human) (UniProt P00519); assay: HTRF
# LCK (human) = LCK (human) (UniProt P06239); assay: HTRF
# CSF1R (human) = CSF1R (human) (UniProt P07333); assay: HTRF
# KIT (human) = KIT (human) (UniProt P10721); assay: HTRF
# MATK (human) = MATK (human) (UniProt P42679); assay: HTRF
# FLT3 (human) = FLT3 (human) (UniProt P36888); assay: HTRF
# ERBB4 (human) = ERBB4 (human) (UniProt Q15303); assay: HTRF
# FGFR3 (human) = FGFR3 (human) (UniProt P22607); assay: HTRF
# FER (human) = FER (human) (UniProt P16591); assay: HTRF
# Sequence of AKT3 (human) (Q9Y243 whole entry, looked up): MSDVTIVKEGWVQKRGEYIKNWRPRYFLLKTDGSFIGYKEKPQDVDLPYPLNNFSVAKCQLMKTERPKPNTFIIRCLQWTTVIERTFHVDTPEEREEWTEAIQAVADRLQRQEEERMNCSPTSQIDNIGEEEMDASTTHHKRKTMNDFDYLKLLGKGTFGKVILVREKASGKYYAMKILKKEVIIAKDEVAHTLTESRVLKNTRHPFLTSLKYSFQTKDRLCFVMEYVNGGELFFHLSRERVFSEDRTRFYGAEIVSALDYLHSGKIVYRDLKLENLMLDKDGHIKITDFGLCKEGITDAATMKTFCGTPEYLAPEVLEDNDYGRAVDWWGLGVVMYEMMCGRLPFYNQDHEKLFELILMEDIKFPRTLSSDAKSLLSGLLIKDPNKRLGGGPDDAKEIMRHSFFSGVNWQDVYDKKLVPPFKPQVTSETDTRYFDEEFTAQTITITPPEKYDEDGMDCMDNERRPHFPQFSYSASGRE
# Sequence of MAP4K4 (human) (O95819 whole entry, looked up): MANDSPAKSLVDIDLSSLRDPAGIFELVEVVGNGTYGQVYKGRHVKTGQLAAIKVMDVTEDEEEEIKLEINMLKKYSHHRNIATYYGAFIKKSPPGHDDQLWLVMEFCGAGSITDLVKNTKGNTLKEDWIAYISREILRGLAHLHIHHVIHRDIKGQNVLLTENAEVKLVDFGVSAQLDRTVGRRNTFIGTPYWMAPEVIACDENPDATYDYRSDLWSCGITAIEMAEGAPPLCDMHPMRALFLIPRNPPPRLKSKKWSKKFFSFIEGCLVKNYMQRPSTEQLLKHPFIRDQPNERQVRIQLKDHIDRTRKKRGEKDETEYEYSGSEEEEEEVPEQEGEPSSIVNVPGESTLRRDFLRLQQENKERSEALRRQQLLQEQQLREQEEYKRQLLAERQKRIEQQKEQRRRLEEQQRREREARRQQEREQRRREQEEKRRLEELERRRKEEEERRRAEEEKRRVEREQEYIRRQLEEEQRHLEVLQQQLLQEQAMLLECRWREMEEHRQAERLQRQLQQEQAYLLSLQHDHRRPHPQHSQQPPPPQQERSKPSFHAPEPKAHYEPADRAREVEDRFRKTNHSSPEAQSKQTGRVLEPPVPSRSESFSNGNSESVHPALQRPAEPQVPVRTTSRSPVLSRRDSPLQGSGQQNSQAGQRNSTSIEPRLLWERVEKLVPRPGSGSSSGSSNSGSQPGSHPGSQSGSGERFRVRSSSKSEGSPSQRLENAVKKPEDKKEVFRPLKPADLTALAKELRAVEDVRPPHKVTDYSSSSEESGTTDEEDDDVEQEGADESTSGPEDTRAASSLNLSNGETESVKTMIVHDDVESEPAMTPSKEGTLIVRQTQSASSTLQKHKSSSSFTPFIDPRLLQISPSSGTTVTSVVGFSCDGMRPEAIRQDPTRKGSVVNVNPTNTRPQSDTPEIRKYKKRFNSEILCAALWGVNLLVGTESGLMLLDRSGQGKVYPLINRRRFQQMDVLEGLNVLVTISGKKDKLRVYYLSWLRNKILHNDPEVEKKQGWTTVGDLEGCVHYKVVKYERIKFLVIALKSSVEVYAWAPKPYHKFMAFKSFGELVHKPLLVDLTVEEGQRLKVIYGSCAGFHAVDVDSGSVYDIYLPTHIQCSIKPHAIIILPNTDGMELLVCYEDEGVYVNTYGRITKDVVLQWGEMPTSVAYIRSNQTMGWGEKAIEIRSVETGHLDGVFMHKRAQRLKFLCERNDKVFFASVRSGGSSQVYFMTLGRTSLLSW
# Sequence of HIPK2 (human) (Q9H2X6 whole entry, looked up): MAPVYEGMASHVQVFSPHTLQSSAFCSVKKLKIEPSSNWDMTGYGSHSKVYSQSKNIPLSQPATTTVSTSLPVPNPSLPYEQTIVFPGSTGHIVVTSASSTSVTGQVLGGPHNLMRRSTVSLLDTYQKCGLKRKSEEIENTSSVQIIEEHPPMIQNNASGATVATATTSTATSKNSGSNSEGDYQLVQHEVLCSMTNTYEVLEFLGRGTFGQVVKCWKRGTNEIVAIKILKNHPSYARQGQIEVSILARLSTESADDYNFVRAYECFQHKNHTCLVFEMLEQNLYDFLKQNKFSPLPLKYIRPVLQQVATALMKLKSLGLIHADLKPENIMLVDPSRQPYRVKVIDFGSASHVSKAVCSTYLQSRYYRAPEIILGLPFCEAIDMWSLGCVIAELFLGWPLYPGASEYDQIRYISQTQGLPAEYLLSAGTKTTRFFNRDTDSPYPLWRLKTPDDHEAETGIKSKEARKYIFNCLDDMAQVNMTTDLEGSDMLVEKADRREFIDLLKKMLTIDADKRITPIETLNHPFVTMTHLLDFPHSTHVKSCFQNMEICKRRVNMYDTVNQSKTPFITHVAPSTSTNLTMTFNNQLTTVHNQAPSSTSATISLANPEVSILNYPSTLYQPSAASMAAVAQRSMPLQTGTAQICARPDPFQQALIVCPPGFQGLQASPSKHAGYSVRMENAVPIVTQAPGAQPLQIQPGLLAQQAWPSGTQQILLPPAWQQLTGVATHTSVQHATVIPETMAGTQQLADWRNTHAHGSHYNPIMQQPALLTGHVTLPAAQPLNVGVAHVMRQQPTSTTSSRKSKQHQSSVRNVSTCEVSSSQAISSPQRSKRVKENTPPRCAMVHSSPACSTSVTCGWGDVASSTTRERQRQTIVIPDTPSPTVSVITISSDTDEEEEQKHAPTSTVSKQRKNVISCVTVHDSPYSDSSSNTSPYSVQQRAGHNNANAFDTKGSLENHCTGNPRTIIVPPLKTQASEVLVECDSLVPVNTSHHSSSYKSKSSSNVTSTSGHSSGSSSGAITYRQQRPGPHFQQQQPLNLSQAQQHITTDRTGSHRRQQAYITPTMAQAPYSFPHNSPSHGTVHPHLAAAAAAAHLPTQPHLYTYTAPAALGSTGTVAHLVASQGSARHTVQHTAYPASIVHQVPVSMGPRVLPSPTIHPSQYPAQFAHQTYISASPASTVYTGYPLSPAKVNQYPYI
# Sequence of FGFR3 (human) (P22607 whole entry, looked up): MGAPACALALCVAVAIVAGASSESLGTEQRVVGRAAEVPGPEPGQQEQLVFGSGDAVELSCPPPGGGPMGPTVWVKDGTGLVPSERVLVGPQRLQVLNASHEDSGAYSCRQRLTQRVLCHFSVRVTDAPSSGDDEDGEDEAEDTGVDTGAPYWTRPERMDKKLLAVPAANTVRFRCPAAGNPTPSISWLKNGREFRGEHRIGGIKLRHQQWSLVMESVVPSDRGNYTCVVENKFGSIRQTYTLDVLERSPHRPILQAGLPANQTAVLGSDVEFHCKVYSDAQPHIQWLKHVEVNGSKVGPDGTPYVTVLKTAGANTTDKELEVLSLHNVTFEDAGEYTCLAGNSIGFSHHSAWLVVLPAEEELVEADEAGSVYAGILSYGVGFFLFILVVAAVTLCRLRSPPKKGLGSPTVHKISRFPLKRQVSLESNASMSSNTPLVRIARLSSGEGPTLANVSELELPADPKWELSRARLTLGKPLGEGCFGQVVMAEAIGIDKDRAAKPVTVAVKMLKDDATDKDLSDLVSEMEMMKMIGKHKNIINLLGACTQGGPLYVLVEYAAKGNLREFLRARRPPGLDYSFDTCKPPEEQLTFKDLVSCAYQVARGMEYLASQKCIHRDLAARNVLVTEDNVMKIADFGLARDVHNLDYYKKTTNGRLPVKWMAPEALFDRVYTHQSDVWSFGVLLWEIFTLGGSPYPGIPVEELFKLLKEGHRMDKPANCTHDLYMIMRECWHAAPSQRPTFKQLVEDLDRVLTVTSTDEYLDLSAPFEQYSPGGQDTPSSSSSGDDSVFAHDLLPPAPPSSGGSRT
# Sequence of MAPKAPK3 (human) (Q16644 whole entry, looked up): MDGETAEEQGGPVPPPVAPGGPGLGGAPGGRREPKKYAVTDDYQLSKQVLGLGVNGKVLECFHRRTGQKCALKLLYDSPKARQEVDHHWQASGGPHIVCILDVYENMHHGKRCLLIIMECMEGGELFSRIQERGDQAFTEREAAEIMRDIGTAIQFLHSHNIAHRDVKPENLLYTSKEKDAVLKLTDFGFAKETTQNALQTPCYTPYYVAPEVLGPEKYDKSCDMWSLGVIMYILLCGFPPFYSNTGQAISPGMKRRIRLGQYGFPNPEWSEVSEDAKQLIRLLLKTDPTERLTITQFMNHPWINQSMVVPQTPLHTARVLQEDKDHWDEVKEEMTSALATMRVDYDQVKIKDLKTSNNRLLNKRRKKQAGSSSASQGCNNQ
# Sequence of FGFR1 (human) (P11362 whole entry, looked up): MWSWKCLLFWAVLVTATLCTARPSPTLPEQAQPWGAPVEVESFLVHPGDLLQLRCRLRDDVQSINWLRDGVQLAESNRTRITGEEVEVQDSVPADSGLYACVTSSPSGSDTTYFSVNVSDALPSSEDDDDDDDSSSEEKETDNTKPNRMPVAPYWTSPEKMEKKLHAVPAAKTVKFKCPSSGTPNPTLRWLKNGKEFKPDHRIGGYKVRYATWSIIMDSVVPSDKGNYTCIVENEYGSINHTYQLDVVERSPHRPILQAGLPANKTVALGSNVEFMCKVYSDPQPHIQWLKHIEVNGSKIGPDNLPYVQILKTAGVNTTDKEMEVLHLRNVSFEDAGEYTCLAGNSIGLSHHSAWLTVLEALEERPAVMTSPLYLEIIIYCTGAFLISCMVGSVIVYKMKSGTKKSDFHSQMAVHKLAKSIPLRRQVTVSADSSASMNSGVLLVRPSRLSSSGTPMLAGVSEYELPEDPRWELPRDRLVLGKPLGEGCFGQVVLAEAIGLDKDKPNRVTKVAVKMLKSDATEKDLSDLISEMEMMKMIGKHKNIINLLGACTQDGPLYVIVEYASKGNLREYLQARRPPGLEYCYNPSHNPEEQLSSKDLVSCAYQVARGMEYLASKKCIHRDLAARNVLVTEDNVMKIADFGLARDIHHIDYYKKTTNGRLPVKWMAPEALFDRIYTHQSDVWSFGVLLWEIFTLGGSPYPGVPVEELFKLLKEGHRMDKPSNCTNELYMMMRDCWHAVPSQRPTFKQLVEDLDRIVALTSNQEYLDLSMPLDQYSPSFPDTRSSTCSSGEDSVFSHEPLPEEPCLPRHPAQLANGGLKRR
smiles,measurement,setting,value
O=C1c2ccccc2-c2n[nH]c3cccc1c23,Ki,MAPKAPK3 (human),> 10000 nM
same,Ki,MLTK (human),501 nM
same,Ki,CHEK2 (human),501 nM
same,Ki,DAPK3 (human),398 nM
same,Ki,PRKAA1 (human),> 1580 nM
same,Ki,HIPK2 (human),200 nM
same,Ki,PRKCD (human),> 7940 nM
same,Ki,MAP4K4 (human),316 nM
same,Ki,RPS6KB1 (human),126 nM
same,Ki,MAPKAPK2 (human),> 7940 nM
same,Ki,AKT3 (human),> 10000 nM
same,Ki,MAPK1 (human),5010 nM
same,Ki,PRKG1 (human),> 2000 nM
same,Ki,FYN (human),> 794 nM
same,Ki,NTRK2 (human),794 nM
same,Ki,SRC (human),> 2000 nM
same,Ki,LYN (human),1000 nM
same,Ki,IGF1R (human),> 2000 nM
same,Ki,KDR (human),631 nM
same,Ki,RET (human),63.1 nM
same,Ki,INSR (human),501 nM
same,Ki,TYRO3 (human),1000 nM
same,Ki,FLT4 (human),15.8 nM
same,Ki,FGFR1 (human),251 nM
same,Ki,FLT1 (human),200 nM
same,Ki,TYK2 JH1 JH2 (human),1260 nM
same,Ki,NTRK1 (human),1260 nM
same,Ki,BLK (human),200 nM
same,Ki,MET (human),501 nM
same,Ki,SRMS (human),> 1580 nM
same,Ki,FRK (human),63.1 nM
same,Ki,BTK (human),> 1260 nM
same,Ki,EPHA2 (human),> 3160 nM
same,Ki,ABL1 (human),> 631 nM
same,Ki,LCK (human),2000 nM
same,Ki,CSF1R (human),126 nM
same,Ki,KIT (human),1260 nM
same,Ki,MATK (human),501 nM
same,Ki,FLT3 (human),50.1 nM
same,Ki,ERBB4 (human),3980 nM
same,Ki,FGFR3 (human),158 nM
same,Ki,FER (human),50.1 nM
